This passage reports EC50 results from patent US20050090522A1 (priority 2001, published 2005).

Where only a bound is given, the exact number is not on record here.

One assay relates to HIV-1. In words: HIV-1 single-round infectious luciferase reporter virus (pseudotype) assay in HeLa CD4 CCR5 cells. It is filed as cell-based. Conditions: Human immunodeficiency virus 1, HeLa-CD4/CCR5, 72 h, read-out: EC50 Group from Table 1, HeLa CD4 CCR5 cells, luciferase reporter virus, harvested 72 h after infection. Put shortly: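 HeLa CD4 CCR5 cells (5×10^4/well, DMEM + 10% FBS) were treated with compound (final <10 μM) and infected with single-round luciferase reporter virus made in 293 cells, at MOI ~0.01. Luciferase was read 72 h post infection. EC50 came from 10-concentration percent-inhibition curves fitted to a four-parameter logistic model.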
In the case of `C[C@@H]1CN(C(=O)c2ccccc2)CCN1C(=O)C(=O)c1c[nH]c2nc(-c3nnn[nH]3)ccc12` [Example 56], the EC50 was in the range of 1000 to 5000 nM.

The same assay, now with this note: Human immunodeficiency virus 1, HeLa-CD4/CCR5, read-out: EC50 Group from TABLE 1, HeLa CD4 CCR5 cells, single-round infectious luciferase reporter virus.
For `COc1cnc(-c2cnc(NC(=O)c3ccncc3)s2)c2[nH]cc(C(=O)C(=O)N3CCN(C(=O)c4ccccc4)CC3)c12` [Example 169], the EC50 was < 1000 nM.

As to `COc1cnc(-c2cnccn2)c2[nH]cc(C(=O)C(=O)N3CCN(C(=O)c4ccno4)CC3)c12` [Example 196], the EC50 was < 1000 nM. Consider `C[C@@H]1CN(C(=O)c2ccccc2)CCN1C(=O)C(=O)c1c[nH]c2c(-c3cncc(NC(=O)C4OC4C(=O)O)n3)nccc12` (stereo in doubt) [Example 296, 3-(6-{3-[2-(4-Benzoyl-2-methyl-piperazin-1-yl)-2-oxo-acetyl]-1H-pyrrolo[2,3-c]pyridin-7-yl}-pyrazin-2-ylcarbamoyl)-oxirane-2-carboxylic acid], for which the 50% effective concentration (EC50) was < 1000 nM.

For `O=C(C(=O)N1CCN(C(=O)c2ccccc2)CC1)c1c[nH]c2c(-c3ccncc3)nccc12` [Example 10, 1-(benzoyl)-4-[(7-(pyridin-4-yl)-6-azaindol-3-yl)-oxoacetyl]piperazine], the concentration for a half-maximal effect (EC50) is < 1000 nM. Same read-out and setting: to `COc1cnc(-c2cnc(-n3cccc3)nc2)c2[nH]cc(C(=O)C(=O)N3CCN(C(=O)c4ccccc4)CC3)c12` [Example 118, 1-benzoyl-4-[(4-methoxy-7-(2-(pyrrol-1-yl)-pyrimidin-5-yl)-6-azaindol-3-yl)-oxoacetyl]piperazine] belongs < 1000 nM; to `COc1cnc(-c2cscn2)c2[nH]cc(C(=O)C(=O)N3CCN(C(=O)c4ccccn4)CC3)c12` [Example 173, 1-picolinoyl-4-[(4-methoxy-7-(thiazol-4-yl)-6-azaindol-3-yl)-oxoacetyl]piperazine], < 1000 nM. Regarding `C[C@H]1CN(C(=O)c2ccccn2)CCN1C(=O)C(=O)c1c[nH]c2c(-c3cncs3)nccc12` [Example 110, (S)-1-picolinoyl-3-methyl-4-[(7-(thiazol-5-yl)-6-azaindol-3-yl)-oxoacetyl]piperazine], the half-maximal effective concentration (EC50) was < 1000 nM. For the molecule `COc1cnc(-n2ccc(-c3ccc(C)nc3)n2)c2[nH]cc(C(=O)C(=O)N3CCN(C(=O)c4ccccc4)CC3)c12` [Example 264, 1-benzoyl-4-[(4-methoxy-7-(3-(2-methylpyridin-5-yl)pyrazol-1-yl)-6-azaindol-3-yl)-oxoacetyl]piperazine], the EC50 is < 1000 nM.

`CCC(C)c1ncc(-c2ncc(OC)c3c(C(=O)C(=O)N4CCN(C(=O)c5ccccc5)CC4)c[nH]c23)s1` (stereo not shown) [Example 91, 1-benzoyl-4-[(4-methoxy-7-(2-(2-butyl)-thiazol-5-yl)-6-azaindol-3-yl)-oxoacetyl]piperazine]: the EC50 was < 1000 nM. With `COc1cnc(-c2ncc(OC)c3c(C(=O)C(=O)N4CCN(C(=O)c5ccccn5)CC4)c[nH]c23)cn1` [Example 182, 1-picolinoyl-4-[(4-methoxy-7-(2-methoxy-pyrazin-5-yl)-6-azaindol-3-yl)-oxoacetyl]piperazine], the concentration for a half-maximal effect (EC50) was < 1000 nM.

Take `COc1cnc(-c2cnc(N(C)C)cn2)c2[nH]cc(C(=O)C(=O)N3CCN(C(=O)c4ccccn4)CC3)c12` [Example 103, 1-picolinoyl-4-[(4-methoxy-7-(2-dimethylamino-pyrazin-5-yl)-6-azaindol-3-yl)-oxoacetyl]piperazine]: the EC50 was < 1000 nM. On to `COc1cnc(-c2cnc(-c3nccs3)s2)c2[nH]cc(C(=O)C(=O)N3CCN(C(=O)c4ccccc4)CC3)c12` [Example 92, 1-benzoyl-4-[(4-methoxy-7-(2-(thiazol-2-yl)-thiazol-5-yl)-6-azaindol-3-yl)-oxoacetyl]piperazine], for which the concentration for a half-maximal effect (EC50) was < 1000 nM. The same measure, in the same setting: to `COc1nc(-c2ncc(OC)c3c(C(=O)C(=O)N4CCN(C(=O)c5ccccc5)CC4)c[nH]c23)cnc1N` [Example 101, 1-benzoyl-4-[(4-methoxy-7-(2-amino-3-methoxy-pyrazin-5-yl)-6-azaindol-3-yl)-oxoacetyl]piperazine] belongs < 1000 nM; to `O=C(Nc1cccnc1)c1ncc(F)c2c(C(=O)C(=O)N3CCN(C(=O)c4ccccc4)CC3)c[nH]c12` [Example 147], < 1000 nM; to `O=C(C(=O)N1CCN(C(=O)c2ccccc2)CC1)c1c[nH]c2c(-n3cccn3)ncc(F)c12` [Example 219], < 1000 nM.

Regarding `C[C@@H]1CN(C(=O)c2ccccc2)CCN1C(=O)C(=O)c1c[nH]c2c(-c3cncc(O)n3)nccc12` [Example 121], the EC50 is < 1000 nM.

On to `COc1cnc(-n2ccc(C(O)C(C)C)n2)c2[nH]cc(C(=O)C(=O)N3CCN(C(=O)c4ccccc4)CC3)c12` (stereo not shown) [Example 284, 1-benzoyl-4-[(4-methoxy-7-(3-(1-hydroxy-2-methyl-propyl)-pyrazol-1-yl)-6-azaindol-3-yl)-oxoacetyl]piperazine], for which the EC50 was < 1000 nM.

As to `COc1cnc(-c2cccs2)c2[nH]cc(C(=O)C(=O)N3CCN(C(=O)c4ccccc4)CC3)c12` [Example 82, 1-benzoyl-4-[(4-methoxy-7-(thiophen-2-yl)-6-azaindol-3-yl)-oxoacetyl]piperazine], the EC50 was < 1000 nM.

For `COc1cnc(N(c2ccccn2)S(C)(=O)=O)c2[nH]cc(C(=O)C(=O)N3CCN(C(=O)c4ccccc4)CC3)c12` [Example 331], the EC50 was < 1000 nM. On the same count and under the same terms, to `C[C@@H]1CN(C(=O)c2ccccc2)CCN1C(=O)C(=O)c1c[nH]c2c(-c3nccs3)nccc12` [Example 20, 1-benzoyl-3-(R)-methyl-4-[(7-(thiazol-2-yl)-6-azaindol-3-yl)oxoacetyl]piperazine] belongs < 1000 nM; to `COc1cnc(-n2ccc(C3(O)CCCC3)n2)c2[nH]cc(C(=O)C(=O)N3CCN(C(=O)c4ccccc4)CC3)c12` [Example 282, 1-benzoyl-4-[(4-methoxy-7-(3-(1-hydroxy-cyclopentyl)-pyrazol-1-yl)-6-azaindol-3-yl)-oxoacetyl]piperazine], < 1000 nM. Turning to `C[C@@H]1CN(C(=O)c2ccccc2)CCN1C(=O)C(=O)c1c[nH]c2c(-c3cnc(N)nc3)nccc12` [Example 153, (R)-1-benzoyl-3-methyl-4-[(7-(2-amino-pyrimidin-5-yl)-6-azaindol-3-yl)-oxoacetyl]piperazine], the EC50 was < 1000 nM. In the case of `O=C(C(=O)N1CCN(C(=O)c2ccccc2)CC1)c1c[nH]c2c(-c3cnccn3)nccc12` [Example 34, 1-benzoyl-4-[(7-(pyrazin-2-yl)-6-azaindol-3-yl)-oxoacetyl]piperazine], the EC50 was < 1000 nM. Consider `C[C@@H]1CN(C(=O)c2ccccc2)CCN1C(=O)C(=O)c1c[nH]c2c(-c3cnccn3)nccc12` [Example 33, 1-benzoyl-3-(R)-methyl-4-[(7-(pyrazin-2-yl)-6-azaindol-3-yl)-oxoacetyl]piperazine], for which the 50% effective concentration (EC50) is < 1000 nM.

As for `CCN(CC)c1nc(-c2ncc(OC)c3c(C(=O)C(=O)N4CCN(C(=O)c5ccccc5)CC4)c[nH]c23)cs1` [Example 70, 1-benzoyl-4-[(4-methoxy-7-(2-diethylamino-thiazol-4-yl)-6-azaindol-3-yl)-oxoacetyl]piperazine], the EC50 is < 1000 nM.

The assay is the same for the next values; noted with them: Human immunodeficiency virus 1, HeLa-CD4/CCR5, read-out: EC50 Group from Table 1, Table 2-1; HeLa CD4 CCR5 cells, single-round luciferase reporter virus.
For the molecule `COc1cnc(-n2ccc(C(C)n3cncn3)n2)c2[nH]cc(C(=O)C(=O)N3CCN(C(=O)c4ccccc4)[C@H](C)C3)c12` (stereo partly shown) [Example 265], the EC50 is < 1000 nM. Turning to `COc1cnc(-c2cnc(O)cn2)c2[nH]cc(C(=O)C(=O)N3CCN(C(=O)c4ccccc4)[C@H](C)C3)c12` [Example 271], the EC50 is < 1000 nM. Same read-out and setting: to `CCOc1ccn(-c2ncc(OC)c3c(C(=O)C(=O)N4CCN(C(=O)c5ccccc5)[C@H](C)C4)c[nH]c23)n1` [Example 233, (R)-1-benzoyl-2-methyl-4-[(4-methoxy-7-(3-ethoxy-pyrazol-1-yl)-6-azaindol-3-yl)-oxoacetyl]piperazine] belongs < 1000 nM; to `COc1cnc(-c2nc(-c3ccoc3)n[nH]2)c2[nH]cc(C(=O)C(=O)N3CCN(C(=O)c4ccccc4)[C@H](C)C3)c12` [Example 340], < 1000 nM; to `COc1cnc(-n2ccc(O)n2)c2[nH]cc(C(=O)C(=O)N3CCN(C(=O)c4ccccc4)[C@H](C)C3)c12` [Example 257, (R)-1-benzoyl-2-methyl-4-[(4-methoxy-7-(3-hydroxylpyrazol-1-yl)-6-azaindol-3-yl)-oxoacetyl]piperazine], < 1000 nM.

Staying with this assay, now noted: Human immunodeficiency virus 1, HeLa-CD4/CCR5, read-out: EC50 Group from Table 1, Table 4; HeLa CD4 CCR5 cells, single-round luciferase reporter virus.
For the molecule `C[C@@H]1CN(C(=O)c2ccccc2)CCN1C(=O)C(=O)c1c[nH]c2c(-c3ncco3)ccnc12` [Example 126], the EC50 was < 1000 nM. The same measure, in the same setting: for `COc1ccc(-c2ccnc3c(C(=O)C(=O)N4CCN(C(=O)c5ccccc5)C[C@H]4C)c[nH]c23)cc1` [Example 67, 1-benzoyl-3-(R)-methyl-4-[(7-(4-methoxyphenyl)-4-azaindol-3-yl)oxoacetyl]piperazine] the value was < 1000 nM; for `Cc1csc(-c2ccnc3c(C(=O)C(=O)N4CCN(C(=O)c5ccccc5)CC4)c[nH]c23)c1` [Example 134], < 1000 nM.

For `CON(C)C(=O)c1ccnc2c(C(=O)C(=O)N3CCN(C(=O)c4ccccc4)C[C@H]3C)c[nH]c12` [Example 57], the concentration for a half-maximal effect (EC50) is < 1000 nM. For the molecule `O=Cc1ccc(-c2ccnc3c(C(=O)C(=O)N4CCN(C(=O)c5ccccc5)CC4)c[nH]c23)s1` [Example 133], the concentration for a half-maximal effect (EC50) is < 1000 nM.

As to `C[C@@H]1CN(C(=O)c2ccccc2)CCN1C(=O)C(=O)c1c[nH]c2c(C(=O)NCc3ccc(C(F)(F)F)cc3)ccnc12` [Example 135, (R)-1-benzoyl-3-methyl-4-[(7-(4-trifluoromethylbenzylarmino)carbonyl-4-azaindol-3-yl)-oxoacetyl]piperazine], the EC50 is < 1000 nM.
